Laboratory results taken from patent US12059427B2, “Treatments for cachexia” (YINUOKE MEDICINE SCIENCE AND TECHNOLOGY COMPANY LTD., priority 2018, dated 2024).
Entries after “also recorded” stand apart in the source; their conditions may differ.

Experiments:
[1] = tested on: cachectic Balb/c mice injected with C26 tumor cells; test: Kaplan-Meier survival analysis of cachectic mice (C26 model); assay type: in vivo, mouse
[2] = tested on: cachectic Balb/c mice injected with C26 tumor cells; test: Body weight of cachectic mice (C26 cachexia mouse model); assay type: in vivo
[3] = ~50 day period, two 3-day/one-injection-per-day cycles s.c., 0.3 mg Cytarabine, 0.1 mg Ketorolac or combination vs PBS
[4] = 0.3 mg Cytarabine, 0.1 mg Ketorolac or combination (0.3 mg + 0.1 mg) in PBS s.c. on three consecutive days (1 cycle), 8 days observation, vs untreated

Structure (SMILES)	survival (Kaplan-Meier) ([1]; two cycles of daily oral administration, 40 day period, vs PBS vehicle)	survival (Kaplan-Meier) ([1]; two cycles of daily oral administration, 40 day period, vs PBS vehicle, listed as (R)-ketorolac)	body weight of cachectic mice ([2]; 0.05 mg orally, three consecutive days per cycle, 6 days/2 cycles, vs PBS)	body weight of cachectic mice ([2]; 0.05 mg orally, three consecutive days per cycle, 6 days/2 cycles, vs PBS, listed as (R)-ketorolac)	survival (Kaplan-Meier) [1, 3]	body weight of cachectic mice [2, 4]	transient weight loss after treatment ([2]; days 0-5 after start of treatment, 0.3 mg Cytarabine alone vs combination with 0.1 mg Ketorolac, s.c.)
O=C(c1ccccc1)c1ccc2n1CC[C@H]2C(=O)O [(R)-Ketorolac]	prolong survival of cachectic mice	significant efficacy as a single agent increasing the survival of cachectic mice	reverse body weight drop	regained body weight after initiation of the treatment and maintained stabilized body weight during the treatment	–	–	–
Nc1ccn([C@@H]2O[C@H](CO)[C@@H](O)[C@@H]2O)c(=O)n1 [Cytarabine, 1-(β-D-Arabinofuranosyl)cytosine]	–	–	–	–	highly significant increase in survival; also recorded: prolong survival of cachectic mice	the body weight drop eventually reverses for all treated mice; also recorded: reverse body weight drop in cachectic mice	transient weight loss seen on days 0-5
O=C(c1ccccc1)c1ccc2n1CCC2C(=O)O (stereo not drawn) [Ketorolac, Ketorolac tromethamine]	–	–	–	–	finally ketorolac alone	the body weight drop eventually reverses for all treated mice; also recorded: reverse body weight drop in cachectic mice	–
